Measured values reported in the supplement of paper PMC6045584.
± gives the standard deviation of the averaged measurements.

Experiments:
[1] = compound: CCc1cc(Nc2nccc(-c3c(-c4ccc(OC)c(C(=O)Nc5c(F)cccc5F)c4)nc4ccccn34)n2)c(OC)cc1N1CCC(N2CCN(S(C)(=O)=O)CC2)CC1; assay: surviving fraction relative to DMSO-only wells; higher = less growth inhibition; settings: exposure time: 5 days
How it was run: (§1)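 Viability values are CellTiter-Glo luminescence readings, given as surviving fraction against the median of DMSO-only wells. The readings were taken after 10 minutes at room temperature, following five days of continuous exposure to inhibitors at 0.5, 1, 5, 10, 50, 100, 500 and 1000 nM that began 24 hours after log-phase tumour cell lines were seeded at 250–500 cells per well in 384-well plates. Every line was screened three times and kept only if replicate Pearson r >0.7 and median Z' >0.3.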

MK-1775 = compound: C=CCn1c(=O)c2cnc(Nc3ccc(N4CCN(C)CC4)cc3)nc2n1-c1cccc(C(C)(C)O)n1 [MK-1775]; assay: as above; settings: exposure time: 5 days
How it was run: as §1

Test System	surviving fraction ([1]; 0.5 nM)	surviving fraction ([1]; 1 nM)	surviving fraction ([1]; 5 nM)	surviving fraction ([1]; 10 nM)	surviving fraction ([1]; 50 nM)	surviving fraction ([1]; 100 nM)	surviving fraction ([1]; 500 nM)	surviving fraction ([1]; 1000 nM)	surviving fraction (MK-1775; 0.5 nM)	surviving fraction (MK-1775; 1 nM)	surviving fraction (MK-1775; 5 nM)	surviving fraction (MK-1775; 10 nM)	surviving fraction (MK-1775; 50 nM)	surviving fraction (MK-1775; 100 nM)	surviving fraction (MK-1775; 500 nM)	surviving fraction (MK-1775; 1000 nM)
HCC78 LUNG	0.893 ± 0.21	0.819 ± 0.18	0.91 ± 0.14	0.859 ± 0.05	0.899 ± 0.32	0.864 ± 0.051	0.653 ± 0.19	0.657 ± 0.14	0.883 ± 0.12	0.875 ± 0.14	1.07 ± 0.32	1.02 ± 0.13	0.827 ± 0.15	0.839 ± 0.08	0.105 ± 0.022	0.0803 ± 0.02
HCC1806 BREAST	1.05 ± 0.032	0.985 ± 0.042	1.04 ± 0.025	1.05 ± 0.1	0.993 ± 0.1	1.03 ± 0.13	0.93 ± 0.13	0.904 ± 0.085	1.05 ± 0.047	0.996 ± 0.076	1.13 ± 0.032	1.02 ± 0.14	0.631 ± 0.082	0.303 ± 0.036	0.049 ± 0.0061	0.0403 ± 0.0015
SUM149.B1*.S BREAST	0.994 ± 0.024	1.05 ± 0.033	1.05 ± 0.051	1.1 ± 0.02	1.01 ± 0.047	1.081 ± 0.01	1.05 ± 0.082	1.04 ± 0.048	1.1 ± 0.035	1.11 ± 0.053	1.1 ± 0.043	1.13 ± 0.017	1.07 ± 0.025	0.892 ± 0.018	0.198 ± 0.01	0.144 ± 0.0048
T47D BREAST	1.06 ± 0.042	1.04 ± 0.027	1.05 ± 0.031	1.07 ± 0.016	1.06 ± 0.056	1.14 ± 0.051	1.03 ± 0.036	0.997 ± 0.014	1.07 ± 0.021	1.05 ± 0.014	1.1 ± 0.044	1.01 ± 0.015	1.06 ± 0.065	0.979 ± 0.025	0.453 ± 0.025	0.38 ± 0.024
SUM159 BREAST	1.1 ± 0.27	1.17 ± 0.28	1.15 ± 0.24	1.14 ± 0.2	1.11 ± 0.21	1.12 ± 0.19	1.07 ± 0.14	1.08 ± 0.18	1.06 ± 0.023	1.03 ± 0.021	1.04 ± 0.028	1.02 ± 0.022	1.01 ± 0.069	1.02 ± 0.057	0.69 ± 0.17	0.377 ± 0.16
HCT15 LARGE INTESTINE	0.963 ± 0.028	0.995 ± 0.028	0.99 ± 0.027	1.03 ± 0.03	1 ± 0.02	1.05 ± 0.016	1.12 ± 0.036	1.06 ± 0.017	1.033 ± 0.0098	1.02 ± 0.032	1 ± 0.037	1.02 ± 0.035	1.05 ± 0.037	1 ± 0.05	0.521 ± 0.087	0.121 ± 0.0021
SG32 HEADNECK	1.07 ± 0.22	1.11 ± 0.026	1.15 ± 0.089	1.17 ± 0.15	1.15 ± 0.23	1.21 ± 0.1	1.6 ± 0.59	1.15 ± 0.017	1.25 ± 0.072	1.43 ± 0.26	1.13 ± 0.19	1.14 ± 0.2	0.852 ± 0.074	0.476 ± 0.037	0.22 ± 0.038	0.19 ± 0.0027
U2OS BONE	0.992 ± 0.02	1 ± 0.017	1.06 ± 0.025	1.031 ± 0.0015	1.06 ± 0.023	1.06 ± 0.035	1.01 ± 0.013	0.975 ± 0.019	1.03 ± 0.028	0.991 ± 0.043	1.07 ± 0.032	1.07 ± 0.034	0.922 ± 0.039	0.641 ± 0.028	0.133 ± 0.002	0.0693 ± 0.0045
OS25HAL BONE	0.997 ± 0.011	1.02 ± 0.011	1.032 ± 0.01	1.04 ± 0.037	1.02 ± 0.015	1.04 ± 0.018	0.948 ± 0.055	0.944 ± 0.05	0.9753 ± 0.0045	0.9973 ± 0.0092	1.03 ± 0.019	1.02 ± 0.025	0.973 ± 0.042	0.554 ± 0.026	0.0463 ± 0.0032	0.0417 ± 0.0025
C33A CERVIX	0.755 ± 0.047	0.874 ± 0.086	1 ± 0.057	0.892 ± 0.11	1.01 ± 0.11	0.952 ± 0.031	0.832 ± 0.062	0.793 ± 0.051	0.908 ± 0.063	0.986 ± 0.15	1 ± 0.053	0.962 ± 0.11	0.895 ± 0.073	0.491 ± 0.025	0.043 ± 0.02	0.0347 ± 0.0064
SKBR3 BREAST	1.04 ± 0.12	1.06 ± 0.18	1.05 ± 0.057	0.99 ± 0.089	0.983 ± 0.13	1.01 ± 0.099	0.849 ± 0.082	0.664 ± 0.048	1.07 ± 0.15	0.873 ± 0.22	0.975 ± 0.15	1.02 ± 0.15	0.858 ± 0.12	0.746 ± 0.077	0.308 ± 0.031	0.182 ± 0.0035
RDES SOFT TISSUE	1.25 ± 0.081	1.13 ± 0.14	1.19 ± 0.15	1.2 ± 0.043	0.998 ± 0.2	1.09 ± 0.043	0.924 ± 0.1	1.25 ± 0.21	1.17 ± 0.088	1.09 ± 0.12	1.1 ± 0.077	1.08 ± 0.13	0.871 ± 0.3	1.15 ± 0.18	0.406 ± 0.055	0.187 ± 0.036
22RV1 PROSTATE	1 ± 0.014	1.02 ± 0.023	0.989 ± 0.014	0.953 ± 0.026	1.01 ± 0.024	0.991 ± 0.057	0.989 ± 0.033	0.946 ± 0.042	1.01 ± 0.03	1.01 ± 0.066	0.972 ± 0.051	1 ± 0.021	1.03 ± 0.033	0.877 ± 0.083	0.608 ± 0.028	0.263 ± 0.039
CASKI CERVIX	0.937 ± 0.051	0.949 ± 0.055	0.97 ± 0.048	0.979 ± 0.04	0.946 ± 0.015	1.01 ± 0.043	0.967 ± 0.07	0.88 ± 0.039	0.887 ± 0.032	0.916 ± 0.071	0.99 ± 0.044	0.919 ± 0.049	0.479 ± 0.022	0.187 ± 0.012	0.0533 ± 0.0051	0.0453 ± 0.0068
HU09 BONE	0.897 ± 0.047	0.949 ± 0.12	1.08 ± 0.16	1.06 ± 0.032	1.03 ± 0.063	1.1 ± 0.048	0.88 ± 0.052	0.872 ± 0.085	1.02 ± 0.088	0.916 ± 0.096	1.009 ± 0.01	0.99 ± 0.049	0.831 ± 0.14	0.518 ± 0.045	0.06 ± 0.005	0.0393 ± 0.0049
MDAMB157 BREAST	0.834 ± 0.049	0.96 ± 0.15	0.973 ± 0.12	0.996 ± 0.052	0.934 ± 0.058	1.04 ± 0.094	0.94 ± 0.06	0.982 ± 0.14	0.835 ± 0.1	0.95 ± 0.075	0.94 ± 0.075	0.966 ± 0.096	0.522 ± 0.045	0.278 ± 0.067	0.0617 ± 0.015	0.0613 ± 0.0072
NCIH441 LUNG	0.964 ± 0.035	0.977 ± 0.13	0.99 ± 0.029	0.989 ± 0.059	0.997 ± 0.04	1.07 ± 0.065	0.917 ± 0.072	0.979 ± 0.092	1.11 ± 0.085	1.04 ± 0.031	1.03 ± 0.029	0.986 ± 0.049	0.944 ± 0.065	0.794 ± 0.044	0.428 ± 0.057	0.369 ± 0.044
DU4475 BREAST	0.866 ± 0.12	0.937 ± 0.041	0.819 ± 0.072	1 ± 0.06	0.977 ± 0.28	0.832 ± 0.27	1.11 ± 0.34	1.19 ± 0.24	1.1 ± 0.26	1.15 ± 0.088	1.01 ± 0.068	0.889 ± 0.059	0.686 ± 0.28	0.554 ± 0.23	0.102 ± 0.034	0.037 ± 0.0056
HT1080 SOFT TISSUE	1.05 ± 0.037	1.05 ± 0.023	1.02 ± 0.0067	1.03 ± 0.031	1.05 ± 0.024	1.02 ± 0.038	0.9943 ± 0.0058	0.946 ± 0.034	1.02 ± 0.03	1.01 ± 0.017	0.992 ± 0.019	1.02 ± 0.023	0.638 ± 0.025	0.277 ± 0.012	0.113 ± 0.015	0.091 ± 0.0089
MDAMB231 BREAST	0.973 ± 0.025	1 ± 0.03	1.01 ± 0.033	1.03 ± 0.017	0.962 ± 0.024	1 ± 0.019	0.906 ± 0.022	0.875 ± 0.018	1.01 ± 0.034	1 ± 0.037	1 ± 0.026	1 ± 0.04	1.01 ± 0.043	0.778 ± 0.028	0.155 ± 0.0079	0.146 ± 0.0047
